In patent US12226384B2, “Peramivir solution type inhalant and preparation method therefor” (priority 2019, dated 2025):
Where two headings read alike, the source gives them in different places.

Tests used:
[1] = cited from earlier work
[2] = at respective timing
Method: Experiment Method: 15 SD male rats were drawn to be randomly assigned into 3 groups, 5 rats in each group, and peramivir sodium chloride injection (Lot No.: 3139262, Guangzhou Nanxin Pharmaceutical Co., Ltd.) was administered via intravenous injection at a dose of 10 mg/kg. 0.20 ml blood was collected from orbital venous plexus at 5 min, 1 h, and 3 h after dosing to the rats, respectively; and then the rats were lethally anesthetized to harvest the lung tissues (including trachea). After being anticoagulated by heparin sodium, the whole blood was centrifuged (1000 rpm, 5 min) to harvest the plasma; the lung tissues were rinsed and weighed; the plasma and lung tissues were placed under −20° C. until used for testing.
The rats were lethally anesthetized at 5 min, 1 h, and 3 h after administration, respectively, with their weights weighed and recorded; then, they were exercised to remove lung tissues (including trachea); the lung tissues were rinsed with saline solution; the residual liquid was sucked dry with filter paper; the lung tissues with the residual liquid were placed in an EP tube, weighed with deduction of the weight of the EP tube the weighed weight was recorded; finally, the lung tissues were placed in a −20° C. refrigerator for storage. […]
Peramivir standard solutions with concentrations of 0.5, 1, 5, 10, 50, 100, 200 μg/mL, respectively, were formulated using 1 mg/mL mother solution according to the gradient dilution method. […] The intra-day lung tissue drug concentrations were calculated according to standard protocol. […]

[3] = Equilibrium solubility of peramivir in saline solutions of different pH; format: physicochemical; parameters: unit not given here; settings: 25° C.
Method: An excess amount of bulk peramivir was drawn and placed into a 25 ml volumetric flask, and 0.7% salt solution was applied to bring the volume to scale; the diluted solution was placed on a shaker and shaken for 24 h (25° C., 75 rpm), and then dilute hydrochloric acid (5%, V/V) was applied to regulate the pH to 4, 4.5, 5.0, and 5.5, respectively; the pH-regulated solutions were placed for another 48 h, and then filtered with a 0.45 μm filter membrane; the filtrates were diluted 250-fold with deionized water; the peramivir contents in the samples were determined by the HPLC method in peramivir standard.

CCC(CC)[C@H](NC(C)=O)[C@@H]1[C@H](O)[C@@H](C(=O)O)C[C@H]1NC(=N)N [Peramivir, (−)-(1S, 2S, 3R, 4R)-2-hydroxy-3-[(1S)-1-acetamido-2-ethyl]butyl-4-guanidinocyclopenta-1-carbo xylic acid]
stability of peramivir APIs ([1]; 48 h at 100° C.): stable | stability of peramivir APIs ([1]; acidic conditions): unstable | stability of peramivir APIs ([1]; alkaline and neutral environments): good stability | stability of peramivir APIs ([1]; light irradiation for 10 days): good stability | lung tissue concentration, aerosol inhalation relative to intravenous administration ([2]; aerosol 10 mg/kg vs intravenous 10 mg/kg): 2.02˜41.58 times | lung tissue concentration, aerosol inhalation relative to intravenous administration ([2]; aerosol low dose 2.5 mg/kg vs intravenous 10 mg/kg): 1.07˜4.58 times | lung tissue concentration, aerosol inhalation relative to intravenous administration ([2]; aerosol medium dose 5 mg/kg vs intravenous 10 mg/kg): 1.58˜5.31 times | Equilibrium Solubility of Peramivir in Saline Solutions ([3]; pH = 4.0, 0.7% salt solution): 33.93 ± 0.51 | Equilibrium Solubility of Peramivir in Saline Solutions ([3]; pH = 4.5, 0.7% salt solution): 26.53 ± 0.14 | Equilibrium Solubility of Peramivir in Saline Solutions ([3]; pH = 5.0, 0.7% salt solution): 22.84 ± 0.39 | Equilibrium Solubility of Peramivir in Saline Solutions ([3]; pH = 5.5, 0.7% salt solution): 22.04 ± 0.21 | Equilibrium Solubility of Peramivir in Saline Solutions ([3]; pH was not regulated with 0.7% salt solution (pH = 6.86)): 21.48 ± 0.31
